Source: US20220242870A1, “HETEROCYCLE-FUSED PYRIMIDINE DERIVATIVE AND USE THEREOF” (VORONOI Inc., priority 2019, published 2022)

Tests used:
MV4-11 cells = test: AML cell proliferation inhibitory activity (CellTiter-Glo); format: cell-based; settings: Homo sapiens, 72 hours
Experimental: The inhibitory activities of the example compounds according to the present invention on the proliferation of acute myeloid leukemia (AML) cells expressing the FLT3 mutant gene were evaluated. Specifically, RS4;11 and MV4-11 cells as acute myeloid leukemia cells expressing the FLT3 mutant gene were cultured in RPMI-1640 (Invitrogen) adding 10% FBS. The cells were seeded into each well of a clear bottom white 96-well plate (Corning) at 3000 to 5000 cells 24 hours before compound treatment. The compound was diluted in DMSO (diluted each three-fold, to a total of 12 concentrations) and injected at 0.5 μL each so as to be a final concentration of 0.3 nM to 50 μM. After 72 hours of the compound treatment, they were treated with CellTiter-Glo Luminescent Cell Viability assay (Promega) and stored at room temperature for 10 minutes, and luminescence intensities were measured with a reader (SynergyNeo, Biotek) to count viable cells. Each experiment was performed three times repeatedly. The result values were calculated as the cell growth rate (%) compared to the control treated with the solvent. The graph was derived using the GraphPad Prism program (version 5.0), the GI50 (nM) values were calculated, and the results were shown in Table 3 below.

MCF-7 cells = test: Breast cancer cell line proliferation inhibitory activity (CellTiter-Glo 2.0); format: cell-based; settings: Homo sapiens, MCF7, 120 hours
Summary of the method: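 MCF-7 cells exposed to a 12-point, 3-fold dilution series (final 0.00005–10 μM) for 120 h at 37 °C. Viability read by CellTiter-Glo 2.0 luminescence, expressed as percent of vehicle-treated cells. GI50 (nM) derived from the curves.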

human GST-HPK1 (1-346) = target: T1, human GST-HPK1 (1-346) (Homo sapiens, UniProt Q92918); test: HPK1 enzyme inhibitory ability (ADP-Glo kinase assay); format: biochemical; settings: human GST-HPK1 3 ng, ATP 3 uM, 25° C. 2 hours
T1 construct: purified human GST-HPK1 (1-346, Signalchem) enzyme; purchased Signalchem
T1 sequence (Q92918 1-346): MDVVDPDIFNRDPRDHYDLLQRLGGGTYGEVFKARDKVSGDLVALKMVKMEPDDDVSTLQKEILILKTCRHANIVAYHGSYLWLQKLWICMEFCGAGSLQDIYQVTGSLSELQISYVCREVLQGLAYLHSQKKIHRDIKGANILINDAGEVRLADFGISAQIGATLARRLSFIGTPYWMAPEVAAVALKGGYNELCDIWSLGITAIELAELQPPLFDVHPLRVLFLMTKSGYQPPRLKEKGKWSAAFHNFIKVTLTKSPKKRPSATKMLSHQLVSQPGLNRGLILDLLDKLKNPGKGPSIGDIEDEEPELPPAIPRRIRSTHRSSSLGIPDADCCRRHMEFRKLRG
Summary of the method: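 Human GST-HPK1(1-346), 3 ng, reacted with 3 uM ATP and specific substrate in 40 mM Tris-HCl pH 7.4, 20 mM MgCl2, 0.5 mg/mL BSA, 50 uM DTT for 2 h at 25° C. ADP-Glo luminescence read; IC50 (nM) relative to untreated solvent control.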

human FLT3-ITD enzyme = target: T2, human FLT3-ITD enzyme (Homo sapiens, UniProt P36888); test: FLT3 enzyme inhibitory ability (ADP-Glo kinase assay); format: biochemical; settings: human FLT3-ITD enzyme 10 ng, ATP 10 μM, 25° C. 1 hour
T2 sequence (P36888 1-993): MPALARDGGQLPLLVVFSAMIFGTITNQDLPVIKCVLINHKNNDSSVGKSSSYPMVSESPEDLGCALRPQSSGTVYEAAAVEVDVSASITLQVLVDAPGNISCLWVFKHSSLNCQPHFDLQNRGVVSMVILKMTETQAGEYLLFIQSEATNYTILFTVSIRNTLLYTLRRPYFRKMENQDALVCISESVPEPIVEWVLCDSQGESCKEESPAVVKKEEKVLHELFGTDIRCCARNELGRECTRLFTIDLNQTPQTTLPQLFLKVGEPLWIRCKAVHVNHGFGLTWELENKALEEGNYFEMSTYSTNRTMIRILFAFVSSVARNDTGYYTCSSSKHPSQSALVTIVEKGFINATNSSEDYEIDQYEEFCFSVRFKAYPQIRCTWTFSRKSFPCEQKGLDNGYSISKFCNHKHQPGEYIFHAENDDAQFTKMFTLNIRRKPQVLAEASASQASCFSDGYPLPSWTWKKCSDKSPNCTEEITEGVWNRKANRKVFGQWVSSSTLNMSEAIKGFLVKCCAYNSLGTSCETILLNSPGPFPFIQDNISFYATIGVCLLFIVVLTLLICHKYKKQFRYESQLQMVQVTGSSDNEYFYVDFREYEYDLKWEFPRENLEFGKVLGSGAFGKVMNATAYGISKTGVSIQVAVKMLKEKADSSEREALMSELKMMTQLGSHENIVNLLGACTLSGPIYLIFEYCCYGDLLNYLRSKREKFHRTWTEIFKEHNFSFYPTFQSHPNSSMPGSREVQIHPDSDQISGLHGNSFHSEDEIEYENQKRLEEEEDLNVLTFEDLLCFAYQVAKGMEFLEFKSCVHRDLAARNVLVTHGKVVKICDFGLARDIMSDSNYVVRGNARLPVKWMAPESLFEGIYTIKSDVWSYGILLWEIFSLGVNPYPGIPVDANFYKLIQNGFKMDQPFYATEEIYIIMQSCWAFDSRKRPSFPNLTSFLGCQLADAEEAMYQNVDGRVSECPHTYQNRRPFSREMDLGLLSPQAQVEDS
Summary of the method: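 Purified human FLT3-ITD (10 ng) with 10 μM ATP and specific substrate in 40 mM Tris-HCl pH 7.4, 20 mM MgCl2, 0.5 mg/mL BSA, 50 μM DTT, 1 h at 25 °C. ADP formation read by ADP-Glo luminescence; IC50 (nM) versus solvent-treated control.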

Structure (SMILES) | GI50 (MV4-11 cells) [nM] | GI50 (MCF-7 cells) [nM] | IC50 (human GST-HPK1 (1-346)) [nM] | IC50 (human FLT3-ITD enzyme) [nM]
N#Cc1c[nH]c2nc(Nc3ccc4c(c3)CCNC4)nc(N3OCC[C@H]3c3ccccc3)c12 [Example 120, (S)-4-(3-phenylisoxazolidin-2-yl)-2-((1,2,3,4-tetrahydroisoquinolin-6-yl)amino)-7H-pyrrolo[2,3-d]pyrimidine-5-carbonitrile] | ≥ 250 | ≥ 250 | ≥ 250 | ≥ 250
COc1cc(Nc2nc(N3N=CCC3c3ccccc3)c3cc[nH]c3n2)ccc1N1CCC(N2CCN(C)CC2)CC1 (stereo not shown) [Example 69, N-(3-methoxy-4-(4-(4-methylpiperazin-1-yl)piperidin-1-yl)phenyl)-4-(5-phenyl-4,5-dihydro-1H-pyrazol-1-yl)-7H-pyrrolo[2,3-d]pyrimidin-2-amine] | > 500 | > 500 | > 500 | 250 to 500
CN1CCN(c2ccc(Nc3nc(N4OCC[C@H]4c4cccnc4)c4cc[nH]c4n3)cc2)CC1 [Example 78, (S)-N-(4-(4-methylpiperazin-1-yl)phenyl)-4-(3-(pyridin-3-yl)isoxazolidin-2-yl)-7H-pyrrolo[2,3-d]pyrimidin-2-amine] | > 500 | > 500 | ≥ 250 | ≥ 250
CN1CCN(c2ccc(Nc3nc(N4OCC[C@H]4c4cccc(F)c4)c4cc[nH]c4n3)cc2)CC1 [Example 76, (S)-4-(3-(3-fluorophenyl)isoxazolidin-2-yl)-N-(4-(4-methylpiperazin-1-yl)phenyl)-7H-pyrrolo[2,3-d]pyrimidin-2-amine] | > 500 | > 500 | ≥ 250 | ≥ 250
OCCN1CCN(C2CCN(c3ccc(Nc4nc(N5OCC[C@H]5c5ccccc5)c5cc[nH]c5n4)cc3)CC2)CC1 [Example 89, (S)-2-(4-(1-(4-((4-(3-phenylisoxazolidin-2-yl)-7H-pyrrolo[2,3-d]pyrimidin-2-yl)amino)phenyl)piperidin-4-yl)piperazin-1-yl)ethan-1-ol] | 250 to 500 | > 500 | ≥ 250 | 250 to 500
COc1cc(Nc2nc(N3OCC[C@H]3c3ccccc3)c3sccc3n2)ccc1N1CCC(N2CCN(C)CC2)CC1 [Example 57, (S)-N-(3-methoxy-4-(4-(4-methylpiperazin-1-yl)piperidin-1-yl)phenyl)-4-(3-phenylisoxazolidin-2-yl)thieno[3,2-d]pyrimidin-2-amine] | > 500 | > 500 | > 500 | 250 to 500
CN1CCN(C2CCN(c3ccc(Nc4nc(N5OCC[C@H]5c5ccccc5)c5c(C#N)c[nH]c5n4)cc3)CC2)CC1 [Example 119, (S)-2-((4-(4-(4-methylpiperazin-1-yl)piperidin-1-yl)phenyl)amino)-4-(3-phenylisoxazolidin-2-yl)-7H-pyrrolo[2,3-d]pyrimidine-5-carbonitrile] | ≥ 250 | > 500 | ≥ 250 | ≥ 250
COc1cc(N2CCN(C)CC2)ccc1Nc1nc(N2N=CCC2c2ccccc2)c2sccc2n1 (stereo not shown) [Example 6, N-(2-methoxy-4-(4-methylpiperazin-1-yl)phenyl)-4-(5-phenyl-4,5-dihydro-1H-pyrazol-1-yl)thieno[3,2-d]pyrimidin-2-amine] | > 500 | > 500 | > 500 | > 500
COc1cc(C(=O)N2CCOCC2)ccc1Nc1nc(N2OCC[C@H]2c2ccccc2)c2cc[nH]c2n1 [Example 96, (S)-(3-methoxy-4-((4-(3-phenylisoxazolidin-2-yl)-7H-pyrrolo[2,3-d]pyrimidin-2-yl)amino)phenyl)(morpholino)methanone] | > 500 | > 500 | > 500 | ≥ 250
c1ccc([C@@H]2CCON2c2nc(Nc3ccc4c(c3)CCNC4)nc3[nH]ccc23)cc1 [Example 110, (S)-N-(4-(3-phenylisoxazolidin-2-yl)-7H-pyrrolo[2,3-d]pyrimidin-2-yl)-1,2,3,4-tetrahydroisoquinolin-6-amine] | > 500 | 250 to 500 | ≥ 250 | ≥ 250
CN1CCN(c2ccc(Nc3nc(N4OCC[C@H]4c4cccs4)c4cc[nH]c4n3)cc2)CC1 [Example 77, (S)-N-(4-(4-methylpiperazin-1-yl)phenyl)-4-(3-(thiophen-2-yl)isoxazolidin-2-yl)-7H-pyrrolo[2,3-d]pyrimidin-2-amine] | 250 to 500 | > 500 | ≥ 250 | ≥ 250
CCc1cc(Nc2nc(N3N=CCC3c3ccccc3)c3sccc3n2)cc(OCCN2CCC(O)CC2)c1 (stereo not shown) [Example 16, 1-(2-(3-ethyl-5-((4-(5-phenyl-4,5-dihydro-1H-pyrazol-1-yl)thieno[3,2-d]pyrimidin-2-yl)amino)phenoxy)ethyl)piperidin-4-ol] | > 500 | > 500 | > 500 | > 500
CN1CCN(c2ccc(Nc3nc(N4N=CCC4c4ccccc4)c4sccc4n3)cc2)CC1 (stereo not shown) [Example 1, N-(4-(4-methylpiperazin-1-yl)phenyl)-4-(5-phenyl-4,5-dihydro-1H-pyrazol-1-yl)thieno[3,2-d]pyrimidin-2-amine] | > 500 | > 500 | > 500 | 250 to 500
CN1CCc2ccc(Nc3nc(N4OCC[C@H]4c4ccccc4)c4cc[nH]c4n3)cc2C1 [Example 105, (S)-2-methyl-N-(4-(3-phenylisoxazolidin-2-yl)-7H-pyrrolo[2,3-d]pyrimidin-2-yl)-1,2,3,4-tetrahydroisoquinolin-7-amine] | 250 to 500 | > 500 | ≥ 250 | ≥ 250
CN(C)C1CCN(c2ccc(Nc3nc(N4OCC[C@H]4c4ccccc4)c4cc[nH]c4n3)cc2)CC1 [Example 83, (S)-N-(4-(4-(dimethylamino)piperidin-1-yl)phenyl)-4-(3-phenylisoxazolidin-2-yl)-7H-pyrrolo[2,3-d]pyrimidin-2-amine] | ≥ 250 | > 500 | ≥ 250 | ≥ 250
c1ccc([C@@H]2CCON2c2nc(Nc3ccc4c(c3)CNCC4)nc3[nH]ccc23)cc1 [Example 104, (S)-N-(4-(3-phenylisoxazolidin-2-yl)-7H-pyrrolo[2,3-d]pyrimidin-2-yl)-1,2,3,4-tetrahydroisoquinolin-7-amine] | > 500 | > 500 | ≥ 250 | ≥ 250
